# Assay results published in US6462024B1, “Use of inhibitors of the sodium-hydrogen exchanger for the production of a medicament for decreasing undesired effects of substrates of the heart” (Aventis Pharma Deutschland GmbH, priority 1997, dated 2002).
# Entries after “also recorded” stand apart in the source; their conditions may differ.
# System: isolated functioning rat heart
# Assay: low flow ischemia and reperfusion in the isolated functioning rat heart (working-heart mode)
# Design: species or system Wistar-Kyoto rats
# Details: for Incidence of ventricular fibrillations (VF) / Mean duration of ventricular fibrillations (VF) / Incidence of ventricular tachycardias (VT) / Mean duration of ventricular tachycardias and fibrillations (VT + VF): cariporide 1 μmol/l, Rulide 20 mg/kg oral; for incidence of ventricular fibrillation during the reperfusion phase / length of ventricular arrhythmias during the reperfusion phase: macrolide (Rulide) group versus macrolide-pretreated hearts treated with cariporide
# Procedure: All investigations were carried out using hearts of Wistar-Kyoto rats (300-400 g body weight, BW). The rats were kept on a standard diet and had free access to water. The rats were anesthetized with pentobartital (60 mg/kg, i.p.), heparinized (500 I.U./100 g BW i.p.) and respirated with room air via a cannula which was inserted into the trachea. The thorax was then opened, and the heart was removed and placed in a 4° C. physiological solution. After cannulation of the aorta, the hearts were suspended in the unit and perfused in a retrograde manner according to the Langendorff method with an oxygenated (95% O2, 5% CO2), noncirculating Tyrode solution (in mmol/l: NaCl 124.6; KCl 4.0; CaCl2 2.2; MgCl2 1.1; NaHCO3 24.9; NaH2PO4 0.3; glucose 11.1) using a perfusion pressure of 51 mm Hg. The pulmonary artery and the left auricle were then cannulated and all pulmonary veins were ligated close to the auricle. After an equilibration phase of 15 minutes, the retrograde perfusion was changed into an anterograde perfusion (working-heart mode). At the same time, the filling pressure was adjusted to 11 mm Hg and the afterload to 51 mm Hg. The hearts were paced during the entire experiment at a frequency of 5 Hz. After 15 minutes in the working mode, the coronary flow was reduced by 90% in order to include a global low flow ischemia. The aortic pressure drops from 51 to 11 mm Hg in the course of this. This situation represents an angina pectoris attack in the patient. The low flow ischemia lasted 30 minutes. The hearts were then reperfused for 15 minutes in the Langendorff mode and for a further 15 minutes in the working mode. All animals received oral Rulide (macrolide, 20 mg/kg) dissolved in 1 ml of olive oil, or only 1 ml of olive oil (control), before the experiments. The Na^+/H^+ exchange inhibitor cariporide (1 μmol/l) and its vehicle (Tyrode solution) were added directly to the perfusion solution, i.e. immediately before the latter flows into the heart. The computer-controlled infusion of cariporide and the vehicle solution was begun 15 minutes before low flow ischemia and lasted for the entire experiment. The infusion quantity was 1:100th of the heart minute volume. The following parameters were measured 15 minutes before ischemia and at the end of the reperfusion phase: left ventricular pressure (LVP), left auricle pressure (LAP), aortic pressure (AP), heart-time volume (HTV), coronary flow (CF), aortic flow (AF), heart rate (HR), contractility (dP/dtmax), left ventricular pressure increase (LVPI) and the external heart work (EHW). From these values, the recovery (values after reperfusion based on the starting values before ischemia in %) was calculated. Moreover, the ECG was recorded during the entire experiment and the sum of the individual arrhythmia intervals (ventricular tachycardias and ventricular fibrillations) over the entire experimental period was formed.
# [1] = pretreatment with Rulide, ischemia and reperfusion
compound,measurement,setting,value
"CC[C@H]1OC(=O)[C@H](C)[C@@H](O[C@H]2C[C@@](C)(OC)[C@@H](O)[C@H](C)O2)[C@H](C)[C@@H](O[C@@H]2O[C@H](C)C[C@H](N(C)C)[C@H]2O)[C@](C)(O)C[C@@H](C)/C(=N\OCOCCOC)[C@H](C)[C@@H](O)[C@]1(C)O [Rulide, reference compound]",Incidence of ventricular fibrillations (VF),during ischemia,100%
same,Mean duration of ventricular fibrillations (VF),during ischemia,181 ± 79 s
same,Incidence of ventricular fibrillations (VF),during reperfusion,100%
same,Incidence of ventricular tachycardias (VT),during reperfusion,100%
same,Mean duration of ventricular tachycardias and fibrillations (VT + VF),during reperfusion,1709 ± 319 s
same,incidence of ventricular fibrillation during the reperfusion phase,,100%
same,length of ventricular arrhythmias during the reperfusion phase,,1709 s
same,incidence and duration of ventricular arrhythmias compared with the control group,[1],increase in the incidence and the duration of ventricular arrhythmias
same,recovery compared with the control group,[1],further impairment of recovery
"CC(C)c1ccc(C(=O)NC(=N)N)cc1S(C)(=O)=O [Cariporide (HOE642), cariporide]",effect on the arrhythmias during ischemia,during ischemia,no effect
same,Incidence of ventricular fibrillations (VF),during ischemia,33%
same,Mean duration of ventricular fibrillations (VF),during ischemia,38 ± 26 s
same,Incidence of ventricular fibrillations (VF),during reperfusion,0%
same,Incidence of ventricular tachycardias (VT),during reperfusion,100%
same,Mean duration of ventricular tachycardias and fibrillations (VT + VF),during reperfusion,204 ± 32 s
same,incidence of ventricular fibrillation during the reperfusion phase,,38%
same,length of ventricular arrhythmias during the reperfusion phase,,198 s
same,cardiotoxic effect of the macrolide,"pretreatment of the heart with cariporide, ischemia and reperfusion",completely prevented; also recorded: completely inhibits
